Source: patent EP0632029A1, “Benzylidene hydantoin derivative, ultraviolet ray absorbent and external preparation for skin including the same” (SHISEIDO COMPANY LIMITED, priority 1993, dated 1995)

Key:
Type in all cases: physicochemical
[1] = Reaction with metal ion (colour change after FeCl₃); settings: for color of the solution BEFORE ADDING FeCl₃: 0.1g in 10 ml of 99.5% ethyl alcohol; for color change of the solution AFTER ADDING FeCl₃: 0.1g in 10 ml of 99.5% ethyl alcohol plus 2 ml of 0.02% FeCl₃
Procedure: Reactivities with trivalent iron ion of the following compounds 1 to 3 as examples of the benzylidene hydantoin derivative and 2-hydroxy-4-methoxybenzophenone (comparison 1) and 2-hydroxy-5-methylphenylbenzotriazol (comparison 2) were tested. (Method)
0.1g of each compounds were dissolved in 10 ml of 99.5% ethyl alcohol and added 2 ml of 0.02% FeCl₃ (99.5% ethyl alcohol solution), respectively. After stirring, color change of the solution were observed.

Solubility = assay: Solubility
[2] = UV absorption maximum in ethanol (characterisation of the examples); settings: for ε: at λmax
[3] = Ultraviolet ray absorption, 10ppm in ethanol, spectrophotometer; settings: 10ppm in ethanol (99.5%), quartz cell 10mm
Procedure: Ultraviolet ray absorptivities of the compound 1, 3 and comparison (2-hydroxy-4-methoxybenzophenone; UV-A absorbent) were measured according to the following method.
The compound 1, 3 and the comparison compound were dissolved in ethanol (99.5%) so as to the concentration be 10ppm, and absorption were measured by using quartz cell (10mm×10mm) and the spectrophotometer UVIDEC-610 (JASCO CORPORATION).

| color of the solution BEFORE ADDING FeCl₃ [1] | color change of the solution AFTER ADDING FeCl₃ [1] | Solubility (Solubility; CETYL-2-ETHYLHEXANOATE) | Solubility (Solubility; ETHANOL(99.5%)) | Solubility (Solubility; OLIVE OIL) | λmax (ethanol) [2] | ε [2] | absorption ([3]; WAVELENGTH 300 nm) | absorption ([3]; WAVELENGTH 310 nm) | absorption ([3]; WAVELENGTH 320 nm) | absorption ([3]; WAVELENGTH 330 nm) | absorption ([3]; WAVELENGTH 340 nm) | absorption ([3]; WAVELENGTH 350 nm) | absorption ([3]; WAVELENGTH 360 nm) | absorption ([3]; WAVELENGTH 370 nm) | absorption ([3]; WAVELENGTH 380 nm) | SMILES |
| --- | --- | --- | --- | --- | --- | --- | --- | --- | --- | --- | --- | --- | --- | --- | --- | --- |
| COLORLESS OR LIGHT YELLOW | NO CHANGE | 2.1% | 1.2% | 3.2% | 334 nm | 32,000 | 0.36 | 0.53 | 0.74 | 0.95 | 0.94 | 0.80 | 0.40 | 0.10 | 0.02 | CCCCC(CC)CN1C(=O)NC(=Cc2ccc(OC)cc2)C1=O (centres unmarked) [COMPOUND 1, 5-(4-METHOXYBENZYLIDENE)-3-(2-ETHYLHEXYL) HYDANTOIN] |
| COLORLESS OR LIGHT YELLOW | NO CHANGE | 4% | 1.4% | 7% | 336 nm | 32,500 | 0.24 | 0.39 | 0.55 | 0.73 | 0.76 | 0.68 | 0.40 | 0.14 | 0.03 | CCCCC(CC)COc1ccc(C=C2NC(=O)N(CC(CC)CCCC)C2=O)cc1 (centres unmarked) [COMPOUND 3, 5-[4-(2-ETHYLHEXYLOXY)BENZYLIDENE]-3-(2-ETHYLEXYL) HYDANTOIN] |
| LIGHT YELLOW | BROWNING | 0.2% | 0.65% | 0.4% |  |  |  |  |  |  |  |  |  |  |  | CCCCCCCCN1C(=O)NC(=Cc2ccc(OC)cc2)C1=O [COM. 1, 5-(4-methoxybenzylidene)-3-n-octyl hydantoin, reference compound] |
|  |  |  |  |  |  |  | 0.39 | 0.35 | 0.40 | 0.42 | 0.34 | 0.20 | 0.11 | 0.03 | 0.00 | COc1ccc(C(=O)c2ccccc2)c(O)c1 [COMPARISON, 2-hydroxy-4-methoxybenzophenone, reference compound] |

| SMILES | color of the solution BEFORE ADDING FeCl₃ [1] | color change of the solution AFTER ADDING FeCl₃ [1] | Solubility (Solubility; CETYL-2-ETHYLHEXANOATE) | Solubility (Solubility; ETHANOL(99.5%)) | Solubility (Solubility; OLIVE OIL) | λmax (ethanol) [2] | ε [2] | absorption ([3]; WAVELENGTH 300 nm) | absorption ([3]; WAVELENGTH 310 nm) | absorption ([3]; WAVELENGTH 320 nm) | absorption ([3]; WAVELENGTH 330 nm) | absorption ([3]; WAVELENGTH 340 nm) | absorption ([3]; WAVELENGTH 350 nm) | absorption ([3]; WAVELENGTH 360 nm) | absorption ([3]; WAVELENGTH 370 nm) | absorption ([3]; WAVELENGTH 380 nm) |
| --- | --- | --- | --- | --- | --- | --- | --- | --- | --- | --- | --- | --- | --- | --- | --- | --- |
| COc1ccc(C=C2NC(=O)N(CCCCCCCCCCCCCCCC(C)C)C2=O)cc1 [compound 2, 5-(4-METHOXYBENZYLIDENE)-3-[…]] | COLORLESS OR LIGHT YELLOW | NO CHANGE | 14% | 4.0% | 17% | 334 nm | 31,500 |  |  |  |  |  |  |  |  |  |
